Here are results for one molecule from patent US10364233B2, “Piperidine derivative and methods of use thereof” (vTv Therapeutics LLC, priority 2016, dated 2019).

The target in assay [1] is sRAGE (β-amyloid as the RAGE ligand) (Homo sapiens, UniProt Q15109). The assay can be described thus: General binding assay: inhibition of sRAGE binding to plate-bound β-amyloid. As to conditions: n = 11, hydrochloride salt. As to the method:
(§1) The following is one potential method for screening. S100b or β-amyloid (500 ng/100 μL/well) in 100 mM sodium bicarbonate/sodium carbonate buffer (pH 9.8) is loaded onto the wells of a NUNC Maxisorp flat bottom 96-well microtitre plate. The plate is incubated at 4° C. overnight. The wells are aspirated and treated with 50 mM imidazole buffer saline (pH 7.2) (with 5 mM CaCl2)/MgCl2) containing 1% bovine serum albumin (BSA) (300 μL/well) for 1 h at RT. The wells are aspirated.
(§2) The test compound is dissolved in nanopure water (concentration: 10-100 μM). DMSO may be used as co-solvent. 25 μL of test compound solution in 4% DMSO is added, along with 75 μL sRAGE (6 nM FAC) to each well and samples are incubated for 1 h at 37° C. The wells are washed several times with 155 mM NaCl pH 7.2 buffer saline and are soaked for several seconds between each wash.
(§3) Non-Radioactive Detection is Performed by Adding:
(§4) 10 μL Biotinylated goat F(ab′)2 Anti-mouse IgG. […]
(§5) 100 μL of complex is added to each well and incubation is allowed to proceed at rt for 1 h. […] The reaction is quenched with 10 μL of stop solution (0.5-1.0 N NaOH in 50% ethanol) and the absorbance is measured spectrophotometrically with a microplate reader at 405 nm. […]

The subject of assay [2] is S100b mediated TNF release from THP-1 cells (RAGE signaling). The assay can be described thus: Functional assay: inhibition of S100b mediated TNF release from THP-1 cells. It is filed as cell-based. As to conditions: Homo sapiens; THP-1 cells stimulated with bovine S100b; TNF-alpha by ELISA after 24 hours; hydrochloride salt. As to the method: Previously the literature has cited that THP-1 cells in response to RAGE ligands secrete TNF alpha (Yeh C-H, et al. Diabetes. Vol. 50, June 2001, pp. 1495-1504). The following assay method may be used to identify compounds of Formula (I) or pharmaceutically acceptable salts thereof which are useful as antagonists of RAGE signaling.
The myeloid cell line, THP-1 (ATTC # TIB-202), is cultured in RPMI-1640 media (ATCC, Cat #30-2001) supplemented with fetal bovine serum to a final concentration of 10% by volume and Penicillin-Streptomycin (Gibco, Cat #0.15140-122). Alternatively, media may be formulated using RPMI 1640 (Bio-Whitaker #12-702F) supplemented with 2 mM L-glutamine (Gibco #12381-018) adjusted to contain 1.5 g/L sodium bicarbonate (Gibco #25080-094), 4.5 g/L glucose, 10 mM HEPES (Cellgro #25-060-L1) and 1.0 mM sodium pyruvate (Gibco #11360-070) and supplemented with 0.05 mM 2-mercaptoethanol, […] per ATCC instructions. During culture, the culture cells may be maintained at a density between 5×10^4 and 1×10^6 viable cells/mL. […]
The amount of TNF-alpha secreted by the THP-1 cells may be measured 24 hours after the addition of the stimulant proteins to the cell culture using a commercially available ELISA kit (R&D Systems, Minneapolis, Minn. # DY210). […] The plate may be read at 450 nm within 30 minutes. […]

Assay [3] deals with sRAGE (S100b as the RAGE ligand) (Homo sapiens, UniProt Q15109). Put plainly: General binding assay: inhibition of sRAGE binding to plate-bound S100b. Particulars: n = 13, hydrochloride salt. On the procedure: as §1, §2, §3, §4, §5

The structures appear in SMILES notation. Read-outs that look alike come from different tables or passages of the source.

Sequence of UniProt Q15109 (Q15109 23-342 limits assumed): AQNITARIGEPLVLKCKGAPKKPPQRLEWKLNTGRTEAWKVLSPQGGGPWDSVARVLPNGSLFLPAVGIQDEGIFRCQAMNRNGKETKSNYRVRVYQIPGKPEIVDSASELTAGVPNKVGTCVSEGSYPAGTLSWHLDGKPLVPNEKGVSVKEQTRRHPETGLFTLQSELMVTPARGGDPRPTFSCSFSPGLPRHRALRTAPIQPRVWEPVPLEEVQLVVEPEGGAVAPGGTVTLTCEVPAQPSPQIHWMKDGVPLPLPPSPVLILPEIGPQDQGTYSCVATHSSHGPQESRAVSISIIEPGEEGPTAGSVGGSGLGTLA
Sequence of UniProt Q15109 (Q15109 23-342 limits assumed): as above

Take `Cc1nn(C2CCCCC2)c(C)c1S(=O)(=O)N1CCC(CN(CC(C)C)S(=O)(=O)c2ccc(CNCC3CCNCC3)cc2)(c2ccccc2)CC1` [compound of Formula (I), N-[1-(1-Cyclohexyl-3,5-dimethyl-1H-pyrazole-4-sulfonyl)-4-phenyl-piperidin-4-ylmethyl]-N-isobutyl-4-{[(piperidin-4-ylmethyl)-amino]-methyl}-benzenesulfonamide]: the IC50 – broadly, the concentration at which inhibition is half-maximal – in assay [1] (average, read-out: IC50 (β-amyloid) average) was 400 nM; in assay [1] (range of individual determinations, read-out: IC50 (β-amyloid)), 270 to 600 nM; in assay [2], roughly 500 nM; in assay [3] (average, read-out: IC50 (S100b) average), 420 nM; in assay [3] (range of individual determinations, read-out: IC50 (S100b)), 220 to 620 nM.
